# According to ChEMBL document CHEMBL1201862, “PubChem BioAssay data set” (2004):
#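 How tested: cells in 96-well plates exposed to compound for 48 hours at five concentrations. Abbreviation: GI50, concentration required for 50% inhibition of growth.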 Activity calls are given as the source filed them. Cut-off read from the data, not from the text of the source: active = GI50 up to about 1.1 µM and inactive = higher.
# Experiments:
# Experiment in all cases: growth of human tumour cells (NCI), 48 h
# [1] = test system: MDA-N
# [2] = test system: RXF 393
# [3] = test system: HL-60
# [4] = test system: SNB-19
# [5] = test system: HCT-15
# [6] = test system: SF-295
# [7] = test system: NCI-H460
# [8] = test system: MCF7
# [9] = test system: Malme-3M
# [10] = test system: SF-268
# [11] = test system: MDA-MB-435
# [12] = test system: DU-145
# [13] = test system: 786-0
# [14] = test system: MDA-MB-231
# [15] = test system: BT-549
# [16] = test system: COLO 205
# [17] = test system: SNB-75
# [18] = test system: NCI/ADR-RES
# [19] = test system: OVCAR-5
# [20] = test system: KM12
Structure (SMILES),GI50 [1],GI50 [2],GI50 [3],GI50 [4],GI50 [5] [µM],GI50 [6],GI50 [7],GI50 [8],GI50 [9],GI50 [10],GI50 [11],GI50 [12],GI50 [13],GI50 [14],GI50 [15],GI50 [16],GI50 [17],GI50 [18],GI50 [19],GI50 [20]
O=c1oc2ccccc2cc1P(=O)(O)O,> 100 µM (inactive),> 100 µM (inactive),> 100 µM (inactive),> 100 µM (inactive),> 100,> 100 µM (inactive),> 100 µM (inactive),> 100 µM (inactive),> 100 µM (inactive),> 100 µM (inactive),> 100 µM (inactive),> 100 µM (inactive),> 100 µM (inactive),> 100 µM (inactive),> 100 µM (inactive),> 100 µM (inactive),> 100 µM (inactive),> 100 µM (inactive),> 100 µM (inactive),–
O=C(CC(NC(=O)C(F)(F)F)C(=O)O)OCc1ccccc1 (centres undefined),> 100 µM (inactive),> 100 µM (inactive),> 100 µM (inactive),> 100 µM (inactive),> 100,> 100 µM (inactive),> 100 µM (inactive),> 100 µM (inactive),> 100 µM (inactive),> 100 µM (inactive),> 100 µM (inactive),> 100 µM (inactive),> 100 µM (inactive),> 100 µM (inactive),> 100 µM (inactive),> 100 µM (inactive),> 100 µM (inactive),> 100 µM (inactive),> 100 µM (inactive),> 100 µM (inactive)
CN1CCC/C1=C1/C(=O)N(c2ccccc2)N=C1c1ccc[nH]1,> 100 µM (inactive),> 100 µM (inactive),> 100 µM (inactive),> 100 µM (inactive),> 100,> 100 µM (inactive),> 100 µM (inactive),> 100 µM (inactive),> 100 µM (inactive),> 100 µM (inactive),> 100 µM (inactive),> 100 µM (inactive),> 100 µM (inactive),> 100 µM (inactive),> 100 µM (inactive),> 100 µM (inactive),> 100 µM (inactive),> 100 µM (inactive),> 100 µM (inactive),> 100 µM (inactive)
CCCCc1ccc(Nc2nc(O)c3ncn(COCCO)c3n2)cc1,> 100 µM (inactive),> 100 µM (inactive),> 100 µM (inactive),75.7 µM (inactive),> 100,> 100 µM (inactive),–,> 100 µM (inactive),> 100 µM (inactive),> 100 µM (inactive),> 100 µM (inactive),> 100 µM (inactive),44.1 µM (inactive),> 100 µM (inactive),> 100 µM (inactive),> 100 µM (inactive),> 100 µM (inactive),> 100 µM (inactive),> 100 µM (inactive),> 100 µM (inactive)
COc1cc(/C=C\c2ccc(C)cc2)cc(OC)c1OC,0.00221 µM (active),< 0.01 µM (active),0.00057 µM (active),0.004 µM (active),0.00746,0.00188 µM (active),0.0232 µM (active),0.0415 µM (active),0.00359 µM (active),0.00505 µM (active),0.00264 µM (active),0.0234 µM (active),0.00456 µM (active),0.0259 µM (active),0.0246 µM (active),0.0101 µM (active),0.00281 µM (active),0.00767 µM (active),0.116 µM (active),0.00531 µM (active)
O=C1CSC(c2ccc([N+](=O)[O-])cc2)N1c1nc(-c2ccc3c(c2)CCCC3)cs1 (centres undefined),> 100 µM (inactive),> 100 µM (inactive),> 100 µM (inactive),> 100 µM (inactive),> 100,> 100 µM (inactive),> 100 µM (inactive),31.7 µM (inactive),> 100 µM (inactive),> 100 µM (inactive),33.4 µM (inactive),> 100 µM (inactive),> 100 µM (inactive),70.1 µM (inactive),94.6 µM (inactive),> 100 µM (inactive),86.9 µM (inactive),> 100 µM (inactive),> 100 µM (inactive),> 100 µM (inactive)
Cc1c2c(c(C)n1-c1ccccc1)C(=O)N(CCCCN1CCN(c3ccccc3)CC1)C2=O,9.57 µM (inactive),14.5 µM (inactive),5.5 µM (inactive),29 µM (inactive),7.74,14.6 µM (inactive),11.7 µM (inactive),9.42 µM (inactive),4.03 µM (inactive),37.8 µM (inactive),8.05 µM (inactive),19 µM (inactive),4.97 µM (inactive),10 µM (inactive),16.9 µM (inactive),6.62 µM (inactive),6.89 µM (inactive),17 µM (inactive),49.3 µM (inactive),19.5 µM (inactive)
CCOC(=O)C(C)c1nc2cc(N3CCN(C)CC3)c(F)cc2[nH]c1=O (centres undefined),> 100 µM (inactive),> 100 µM (inactive),> 100 µM (inactive),> 100 µM (inactive),> 100,> 100 µM (inactive),> 100 µM (inactive),> 100 µM (inactive),28.9 µM (inactive),> 100 µM (inactive),> 100 µM (inactive),> 100 µM (inactive),> 100 µM (inactive),> 100 µM (inactive),> 100 µM (inactive),> 100 µM (inactive),> 100 µM (inactive),> 100 µM (inactive),> 100 µM (inactive),> 100 µM (inactive)
CC#CCOC(=O)c1ccccc1OC(C)=O,> 100 µM (inactive),> 100 µM (inactive),72.1 µM (inactive),> 100 µM (inactive),> 100,> 100 µM (inactive),> 100 µM (inactive),> 100 µM (inactive),–,> 100 µM (inactive),> 100 µM (inactive),> 100 µM (inactive),> 100 µM (inactive),> 100 µM (inactive),> 100 µM (inactive),> 100 µM (inactive),> 100 µM (inactive),> 100 µM (inactive),> 100 µM (inactive),> 100 µM (inactive)
CN(O)C(=O)c1cccc(Cl)c1,> 100 µM (inactive),> 100 µM (inactive),10.2 µM (inactive),> 100 µM (inactive),56.1,> 100 µM (inactive),95.1 µM (inactive),> 100 µM (inactive),–,> 100 µM (inactive),> 100 µM (inactive),> 100 µM (inactive),> 100 µM (inactive),> 100 µM (inactive),> 100 µM (inactive),> 100 µM (inactive),> 100 µM (inactive),> 100 µM (inactive),> 100 µM (inactive),> 100 µM (inactive)
[N-]=[N+]=Nc1cc(=O)n2c3c(cccc13)CCC2,> 100 µM (inactive),> 100 µM (inactive),> 100 µM (inactive),–,> 100,> 100 µM (inactive),> 100 µM (inactive),> 100 µM (inactive),> 100 µM (inactive),> 100 µM (inactive),> 100 µM (inactive),> 100 µM (inactive),> 100 µM (inactive),> 100 µM (inactive),> 100 µM (inactive),> 100 µM (inactive),> 100 µM (inactive),> 100 µM (inactive),–,> 100 µM (inactive)
O=C(NCCCNC(=O)c1ccc2c(O)c(O)ccc2c1)c1ccc2c(O)c(O)ccc2c1,19.1 µM (inactive),27.3 µM (inactive),6.32 µM (inactive),25.7 µM (inactive),27.6,19.2 µM (inactive),–,10.5 µM (inactive),> 95.5 µM (inactive),22.9 µM (inactive),15.1 µM (inactive),71.1 µM (inactive),23.9 µM (inactive),29.6 µM (inactive),18.7 µM (inactive),22.9 µM (inactive),17.1 µM (inactive),38.1 µM (inactive),29.1 µM (inactive),18.3 µM (inactive)
C[C@@](O)(/C=C/[C@H]1CC=CC(=O)O1)[C@@H](C[C@@H](O)\C=C/C=C\C=C\CO)OP(=O)(O)O [FOSTRIECIN SODIUM],0.828 µM (active),4.11 µM (inactive),1.1 µM (active),32.3 µM (inactive),5.74,3.94 µM (inactive),10.4 µM (inactive),2.97 µM (inactive),4.74 µM (inactive),16.4 µM (inactive),1.28 µM (inactive),3.21 µM (inactive),5.36 µM (inactive),22.3 µM (inactive),9.59 µM (inactive),3.08 µM (inactive),–,12.8 µM (inactive),6.31 µM (inactive),6.08 µM (inactive)
CC(C)(C)C1=NC(=P(c2ccccc2)(c2ccccc2)c2ccccc2)C(=O)O1,> 100 µM (inactive),> 100 µM (inactive),> 100 µM (inactive),> 100 µM (inactive),–,> 100 µM (inactive),–,> 100 µM (inactive),98.4 µM (inactive),> 100 µM (inactive),> 100 µM (inactive),> 100 µM (inactive),> 100 µM (inactive),> 100 µM (inactive),> 100 µM (inactive),> 100 µM (inactive),6.21 µM (inactive),> 100 µM (inactive),> 100 µM (inactive),> 100 µM (inactive)
CCOC(=O)C1=CCOc2cc(N(C)C)ccc21,> 100 µM (inactive),> 100 µM (inactive),31.8 µM (inactive),> 100 µM (inactive),> 100,> 100 µM (inactive),> 100 µM (inactive),> 100 µM (inactive),> 100 µM (inactive),97.5 µM (inactive),> 100 µM (inactive),> 100 µM (inactive),> 100 µM (inactive),> 100 µM (inactive),> 100 µM (inactive),> 100 µM (inactive),43.4 µM (inactive),> 100 µM (inactive),–,> 100 µM (inactive)
